From patent US20240065988A1, “COMBINED USE OF KETAMINE AND RETIGABINE (EZOGABINE) FOR THE TREATMENT OF PSYCHIATRIC DISORDERS” (Yeda Research and Development Co. Ltd., priority 2021, published 2024)

How the values were obtained:
[1] = tested on: CD-1 mice injected with shRNA-Kcnq2 or shRNA-control AAV; assay: Forced swim test after AAV shRNA knockdown of Kcnq2 in the vHipp; type: in vivo, mouse
CSDS mice (Nex-Cre-Ai9) = assay: Forced swim test in chronic social defeat stress (CSDS) mice; conditions: ketamine 10 mg/kg i.p. vs saline, two days after treatment

For `CNC1(c2ccccc2Cl)CCCCC1=O` (racemic) [ketamine, (R,S)-ketamine], the “antidepressant-like effects of ketamine in the FST” value ([1]; mice expressing the shRNA-Kcnq2 virus, ketamine 10 mg/kg BW) was “no longer detected”, the “immobility time during the FST” value ([1]; shRNA-scramble control mice, ketamine 10 mg/kg BW vs saline) was “significant decrease in immobility time” and the “immobility time during the FST” value (CSDS mice (Nex-Cre-Ai9)) was “significant decrease in immobility time”.
